Laboratory results taken from article PMC7000758 (Nature Communications, 2020).
“And” between values parts separate entries of the source, which are not always exact repeats. Equal values may be shown once. “Also recorded” adds a separate entry of the source. Read-outs that look alike come from different tables or passages of the source.

What was measured:
rhodopsin kinase (GRK-1) = test: Photoreceptor survival: rhodopsin kinase (GRK-1)/actin immunoblot of retinal homogenates; type: in vivo, rho/VEGF mice
Protocol: At P42, some mice were euthanized and eyes were marked at the 12:00 pole and frozen in embedding compound. […] At […] five mice were euthanized and retinas were dissected from each eye and homogenized in 150 μl lysis buffer (Abcam, Cambridge, MA) followed by high speed centrifuge (16,000 × g, 15 min). Supernatants were collected in pre-chilled eppendorf tubes. […] Membranes were probed with anti-GRK1 antibody (1:1000; ThermoFischer Scientific, Catalog no. PA5-13725, Lot no. […] Catalog no. A2066, Lot no. 019M4777V, Sigma Life Science, St. Louis, MO) overnight at 4 °C. […] Louis, MO) was added followed by incubation in SuperSignal West Dura Extended Duration Substrate (Thermofisher), and Western blots were imaged and analyzed with a Bio-mad imaging system.

[1] = tested on: photoreceptors (outer nuclear layer); test: Photoreceptor survival: ONL thickness in mice with type 3 choroidal NV; type: in vivo, rho/VEGF mice; conditions: for ONL thickness: Fig 5b, 40 µg, P42, individual eyes
[2] = tested on: vascular leakage (vitreous albumin); test: Measurement of albumin in vitreous samples (ELISA); type: in vivo, rho/VEGF mice
Description: Vitreous samples were obtained by inserting a micropipette into the vitreous cavity and gently aspirating the vitreous. Using the manufacturer’s instructions, a mouse albumin ELISA kit (ab108791; […] The plate wa read at 450 and 570 nm with SpectraMax Plus (Molecular Devices, San Jose, CA).

subretinal NV = test: Subretinal NV in rho/VEGF transgenic mice (type 3 choroidal NV); type: in vivo; conditions: for Mean area of sunretinal NV per retina: Fig 4b, 40 µg at P14, individual retinas
Protocol: At P21, P28, P35, or P42, mice were euthanized and retinas were stained with FITC-labeled GSA lectin and flat mounted with photoreceptors facing up. Retinal flat mounts were examined by fluorescence microscopy and the area of subretinal NV was measured by image analysis by a masked observer.

VEGF-induced leukostasis = test: Retinal leukostasis (concanavalin A perfusion); type: in vivo, C57BL/6 mice; conditions: 40 µg
Protocol: Leukostasis was measured by staining leukocytes with rhodamine- or FITC-labeled conA[52]. […] Vector Labs Thermofisher). The vasculature was flushed for 4 min with PBS to remove residual unbound conn A. […] Retinas were examined by fluorescence microscopy and the number of intravascular leukocytes throughout the entire retina were counted by an investigator masked with respect to treatment group. […] After washing, retinas were incubated in Alexa Fluor 594-conjugated goat anti-rat secondary antibody (1:500; A-11007 Invitrogen) for 1 h at room temperature. Retinas were washed, flat mounted and examined by fluorescence microscopy.

[3] = tested on: choroidal NV at Bruch's membrane rupture sites; test: Mouse model of laser-induced choroidal NV (type 2); type: in vivo, C57BL/6 mice; conditions: for CNVsize: individual eyes
Protocol: Mice were treated in accordance with the Association for Research in Vision and Ophthalmology Guidelines on the care and use of animals in research. All protocols were approved by the Animal Care and Use Committee of the Johns Hopkins University School of Medicine. Laser photocoagulation-induced rupture of Bruch’s membrane was used to generate choroidal NV[34]. […] One week after rupture of Bruch’s membrane, mice were euthanized, eyes were removed, anterior segments, retinas, and vitreous was removed, and eye cups were stained with fluorescein isothiocyanate (FITC)-conjugated GSA (Vector Laboratories, Burlingame, CA), and flat mounted. Flat mounts were examined by fluorescence microscopy and the area of each choroidal NV was measured by image analysis with Image-Pro Plus software (Media Cybernetics, Silver Spring, MD) by an observer masked with respect to experimental groups. The three areas obtained in each eye were averaged to give a single experimental value.

[4] = cited from earlier work
[5] = for Average release (%): Fig 1b dissolution of suspension
Protocol: At selected time points, 3 ml of the release medium was collected and replaced with 3 ml fresh release medium.

[6] = set-up: method as in rabbit PK study previously conducted by the authors; conditions: rabbit; ref rabbit PK study previously conducted by the authors; cited from earlier work
[7] = Cataract after intravitreous injection in mice; type: in vivo, C57BL/6 mice; conditions: intravitreous doses of free sunitinib >0.5 µg
Description: The murine model of laser-induced rupture of Bruch’s membrane results in choroidal NV that is similar to type 2 choroidal NV in patients with NVAMD, because the new vessels originate from the choroid and penetrate through Bruch’s membrane and the RPE into the subretinal space. Studies in this model helped to implicate VEGF as a critical stimulus for NVAMD[4] and predicted the clinical benefits seen with aflibercept, a recombinant VEGF-neutralizing protein commonly used to treat patients with NVAMD[6],[35].

[8] = Pharmacokinetic study in mice (drug remaining in eye, LC-MS); type: in vivo, C57BL/6N mice; conditions: for Remaining Drug (Normalized against T0) (%): mouse eye, intravitreous 1 µg sunitinib or equivalent
Description: Twenty male or female 5–7-week-old C57BL/6N mice were anesthetized and the pupils were dilated as previously described. […] […], 5 mice from each condition were euthanized and the whole globes were collected and transferred to a bioanalytical facility for measurement of drug levels by liquid chromatography–mass spectrometry (LC–MS). The amount of drug remaining in the eye at 30 days was compared to and presented as a percentage of the initial dose injected in the eye.

[9] = Melanin binding of sunitinib in vitro; type: in vitro ADME, sepia officialis; conditions: for percentage of melanin-bound sunitinib: 10 mg melanin in PBS, 1 h

aflibercept
rhodopsin kinase/actin ratio vs PBS eyes (rhodopsin kinase (GRK-1); 40 µg at P14, P49): no difference
GRK-1/Actin (rhodopsin kinase (GRK-1); Fig 5d, 40 µg, P49, individual retinas): 0.8885 and 0.8156 and 1.021 and 0.9707 and 0.8036
mean ONL thickness vs PBS eyes ([1]; 40 µg at P14, measured at P42): no significant difference
ONL thickness ([1]; location I1): 0.0549 mm and 0.04725 mm and 0.03173 mm and 0.03578 mm and 0.03893 mm and 0.04095 mm and 0.03375 mm
ONL thickness ([1]; location I2): 0.0504 mm and 0.04905 mm and 0.03735 mm and 0.04072 mm and 0.04027 mm and 0.05108 mm and 0.0387 mm
ONL thickness ([1]; location I3): 0.05017 mm and 0.03982 mm and 0.03465 mm and 0.03645 mm and 0.0351 mm and 0.04972 mm and 0.04208 mm
ONL thickness ([1]; location S1): 0.04253 mm and 0.0441 mm and 0.03465 mm and 0.0414 mm and 0.04478 mm and 0.04545 mm
ONL thickness ([1]; location S2): 0.04208 mm and 0.05085 mm and 0.0423 mm and 0.04275 mm and 0.04905 mm and 0.03982 mm and 0.0504 mm
ONL thickness ([1]; location S3): 0.04163 mm and 0.0486 mm and 0.03825 mm and 0.04095 mm and 0.04455 mm and 0.03915 mm and 0.0495 mm
Concentrate of Albmin ([2]; Fig 4d, vitreous, 1 week after 40 µg at P28, individual eyes): 0.1634 µg and 0.1282 µg and 0.1305 µg and 0.1935 µg and 0.4253 µg
mean vitreous albumin concentration vs PBS eyes ([2]; P28 rho/VEGF mice, 1 week after intravitreous 40 µg): significantly less; also recorded: significant reduction
Mean area of sunretinal NV per retina (subretinal NV; P21): 0.006443 mm2 and 0.004033 mm2 and 0.006827 mm2 and 0.01579 mm2 and 0.001837 mm2 and 0.02155 mm2 and 0.01187 mm2 and 0.0074 mm2 and 0.009835 mm2 and 0.01142 mm2 and 0.01439 mm2 and 0.004674 mm2
Mean area of sunretinal NV per retina (subretinal NV; P28): 0.01232 mm2 and 0.01247 mm2 and 0.01867 mm2 and 0.01277 mm2 and 0.01806 mm2 and 0.01223 mm2 and 0.007648 mm2 and 0.002213 mm2 and 0.009102 mm2
Mean area of sunretinal NV per retina (subretinal NV; P35): 0.01325 mm2 and 0.02508 mm2 and 0.02389 mm2 and 0.02314 mm2 and 0.01559 mm2 and 0.02014 mm2 and 0.01286 mm2 and 0.008195 mm2 and 0.01062 mm2 and 0.006501 mm2 and 0.02165 mm2 and 0.01911 mm2 and 0.01968 mm2 and 0.008771 mm2 and 0.02218 mm2 and 0.008675 mm2
Mean area of sunretinal NV per retina (subretinal NV; P42): 0.01663 mm2 and 0.008316 mm2 and 0.01691 mm2 and 0.01919 mm2 and 0.01735 mm2 and 0.02425 mm2 and 0.00731 mm2 and 0.02809 mm2 and 0.01595 mm2
duration of inhibition of subretinal NV (subretinal NV; intravitreous 40 µg): 1 week
mean area of NV per retina vs PBS eyes (subretinal NV; intravitreous 40 µg at P14, P21): significantly less; also recorded: significantly lower
mean number of adherent intravascular leukocytes vs PBS eyes (VEGF-induced leukostasis; 200 ng VEGF one week later, 24 h): significant reduction
Intravascular leukocytes per retina (VEGF-induced leukostasis; Fig 6a, individual retinas): 51 and 28 and 33 and 20 and 18 and 23 and 44 and 54
CNVsize ([3]; Fig 2d, intravitreous 40 µg, 1W): 0.008066 mm2 and 0.009648 mm2 and 0.01333 mm2 and 0.01287 mm2 and 0.01253 mm2 and 0.01268 mm2 and 0.009735 mm2 and 0.0107 mm2
CNVsize ([3]; Fig 2d, intravitreous 40 µg, 9W): 0.03895 mm2 and 0.02251 mm2 and 0.03758 mm2 and 0.02161 mm2 and 0.01535 mm2 and 0.02051 mm2 and 0.02183 mm2
CNVsize ([3]; Fig 2d, intravitreous 40 µg, 15W, listed as Alfibercept): 0.02431 mm2 and 0.01432 mm2 and 0.01526 mm2 and 0.01738 mm2 and 0.01801 mm2 and 0.01547 mm2
choroidal NV vs PBS fellow eye ([3]; intravitreous 40 µg, 1 week after injection): significant suppression; also recorded: significant reduction

CCN(CC)CCNC(=O)c1c(C)[nH]c(/C=C2\C(=O)Nc3ccc(F)cc32)c1C [sunitinib, reference compound]
solubility in acidic aqueous solutions ([4]; pH 1.2–6.8): high solubility
aqueous solubility ([4]; pH 7.4): low aqueous solubility
Average release (%) ([5]; 0.125 days): 34.3%
Average release (%) ([5]; 1 day): 51.9%
Average release (%) ([5]; 3 days): 68.4%
Average release (%) ([5]; 10 days): 89.0%
Average release (%) ([5]; 17 days): 95.0%
Average release (%) ([5]; 24 days): 99.5%
Average release (%) ([5]; 30 days): 100.0%
behaviour in release medium in vitro ([5]; Fig. 1b, open squares): rapidly eluted and dissolved in release medium
vitreous half-life [6]: ~ 2 days
cataract [7]: severe cataract
CNVsize ([3]; Fig 2c, intravitreous free sunitinib 0.1µg, 1 week): 0.01929 mm2 and 0.0114 mm2 and 0.03268 mm2 and 0.02288 mm2 and 0.01524 mm2 and 0.02254 mm2 and 0.02987 mm2 and 0.01948 mm2 and 0.01091 mm2
CNVsize ([3]; Fig 2c, intravitreous free sunitinib 0.5µg, 1 week): 0.008346 mm2 and 0.0258 mm2 and 0.01396 mm2 and 0.0209 mm2 and 0.02253 mm2 and 0.02124 mm2 and 0.01904 mm2 and 0.01077 mm2 and 0.02107 mm2 and 0.01493 mm2
mean area of choroidal NV vs PBS fellow eye ([3]; intravitreous 0.5 or 0.1 µg free sunitinib, 1 week): no significant difference; also recorded: no significant reduction
half-life ([8]; both sexes, C57BL/6N, mouse, whole eye (globe), other: intravitreous injection, 1 µg, read-out: overall half-life in mouse eyes (converted)): ~50.4 h
Remaining Drug (Normalized against T0) (%) ([8]; day 7, listed as Sunitinib Suspension): 10.1%
Remaining Drug (Normalized against T0) (%) ([8]; day 7, listed as free sunitinib): 10.1±0.7%
Remaining Drug (Normalized against T0) (%) ([8]; day 30, listed as Sunitinib Suspension): 8.8%
Remaining Drug (Normalized against T0) (%) ([8]; day 30, listed as sunitinib drug suspension): 9%
percentage of drug bound to melanin ([9]; at a ratio of <10): 96–99.8%
percentage of melanin-bound sunitinib ([9]; sunitinib-to-melanin mass ratio 0.001%): 99.8%
percentage of melanin-bound sunitinib ([9]; sunitinib-to-melanin mass ratio 20%): ~ 80%
